# Tested on: patients having hormone refractory prostate cancer (HRPCa)
# Test: Health-related quality-adjusted time-to-progression (QATTP) of disease, Kaplan-Meier product limit analysis, randomized placebo-controlled study
# Format: in vivo, human
# Procedure: The health-related QATTP of disease model for this invention expresses progression-free time as an equally preferable amount of time spent in full health. This is achieved by using patient-reported health-related QoL, as measured for the duration of observation or progression-free interval, to weight progression-free time. […] Patients received treatment with 10 mg (N=89) or 2.5 mg (N=95) of atrasentan or placebo (N=104) until experiencing a clinical event indicative of disease progression such as palliative opiate treatment of new bone or visceral pain, palliative radiation treatment of new bone pain, or new tumor growth symptoms requiring intervention or treatment with chemotherapy. Patient-reported health-related QoL data were collected with the EORTC QLQ-30 and the FACT-G and FACT-P, both of which were administered at baseline, at six week intervals and at each patient's final visit. The results from the 10 mg and 2.5 mg treatment groups are reported relative to the placebo group. A patient's transformed domain score and total score from both the EORTC QLQ-30 and FACT were used to weight the time-to-progression outcome data. Transformed domain scores ranged between 0 and 1, so the reported health-related QATTP of disease outcome was never larger than the actual time-to-progression. Each patient's health-related QATTP of disease was computed as the sum of the health-related QoL weights multiplied by the duration for which that patient experienced that health-related QoL. If a patient experienced a clinical event between two health-related QoL assessments, the set of health-related QoL domain scores immediately prior to the event were carried forward to the time of the clinical event. The mean and median health-related QATTP of disease outcomes were then estimated using Kaplan-Meier product limit methodology (Journal of the American Statistical Association, vol. 53, 1958, pp 457-481). The area under a Kaplan-Meier survival curve conveys an estimated mean health-related QATTP of disease. This analysis was applied to both intent-to-treat and per protocol population data. All health-related QATTP of disease comparisons between atrasentan and placebo treatment groups were based on a log-rank test with statistical significance at an α of 0.05. Results of the Kaplan-Meier product limit survival method analysis are reported in TABLE 2 (Intent to Treat) and TABLE 3 (Per Protocol Population). Mean and median health-related QATTP of disease are shown by treatment group. Log-rank tests comparing the differences between treatment groups are also reported.
# [1] = EORTC Appetite Loss, 2.5 mg, intent to treat
# [2] = EORTC Appetite Loss, 2.5 mg, per protocol
# [3] = EORTC Appetite Loss, 10 mg, intent to treat
# [4] = EORTC Appetite Loss, 10 mg, per protocol
# [5] = EORTC Cognitive Functioning, 2.5 mg, intent to treat
# [6] = EORTC Cognitive Functioning, 2.5 mg, per protocol
# [7] = EORTC Cognitive Functioning, 10 mg, intent to treat
# [8] = EORTC Cognitive Functioning, 10 mg, per protocol
# [9] = EORTC Constipation, 2.5 mg, intent to treat
# [10] = EORTC Constipation, 2.5 mg, per protocol
# [11] = EORTC Constipation, 10 mg, intent to treat
# [12] = EORTC Constipation, 10 mg, per protocol
# [13] = EORTC Diarrhea, 2.5 mg, intent to treat
# [14] = EORTC Diarrhea, 2.5 mg, per protocol
# [15] = EORTC Diarrhea, 10 mg, intent to treat
# [16] = EORTC Diarrhea, 10 mg, per protocol
# [17] = EORTC Dyspnea, 2.5 mg, intent to treat
# [18] = EORTC Dyspnea, 2.5 mg, per protocol
# [19] = EORTC Dyspnea, 10 mg, intent to treat
# [20] = EORTC Dyspnea, 10 mg, per protocol
# [21] = EORTC Emotional Functioning, 2.5 mg, intent to treat
# [22] = EORTC Emotional Functioning, 2.5 mg, per protocol
# [23] = EORTC Emotional Functioning, 10 mg, intent to treat
# [24] = EORTC Emotional Functioning, 10 mg, per protocol
# [25] = EORTC Fatigue, 2.5 mg, intent to treat
# [26] = EORTC Fatigue, 2.5 mg, per protocol
# [27] = EORTC Fatigue, 10 mg, intent to treat
# [28] = EORTC Fatigue, 10 mg, per protocol
# [29] = EORTC Global Score, 2.5 mg, intent to treat
# [30] = EORTC Global Score, 2.5 mg, per protocol
# [31] = EORTC Global Score, 10 mg, intent to treat
# [32] = EORTC Global Score, 10 mg, per protocol
# [33] = EORTC Nausea & Vomiting, 2.5 mg, intent to treat
# [34] = EORTC Nausea & Vomiting, 2.5 mg, per protocol
# [35] = EORTC Nausea & Vomiting, 10 mg, intent to treat
# [36] = EORTC Nausea & Vomiting, 10 mg, per protocol
# [37] = EORTC Pain, 2.5 mg, intent to treat
# [38] = EORTC Pain, 2.5 mg, per protocol
# [39] = EORTC Pain, 10 mg, intent to treat
# [40] = EORTC Pain, 10 mg, per protocol
# [41] = EORTC Physical Functioning, 2.5 mg, intent to treat
structure (smiles),measurement,setting,value
"CCCCN(CCCC)C(=O)CN1C[C@H](c2ccc3c(c2)OCO3)[C@@H](C(=O)O)[C@@H]1c1ccc(OC)cc1 [atrasentan, (2R,3R,4S)-2-(4-methoxyphenyl)-4-(1,3-benzodioxol-5-yl)-1-(((N,N-dibutylamino)carbonyl)methyl)pyrrolidine-3-carboxylic acid]",log rank tests of mean health-related QATTP of disease,"2.5 mg, all health-related QoL domains except dyspnea and functional well-being",statistically significant
same,mean health-related QATTP of disease,"2.5 mg, data in TABLE 2 (so in the source)",longer
same,difference in health-related QATTP between the atrasentan treatment groups,"10 mg vs 2.5 mg, any health-related QoL domain",no statistical differences
same,mean health-related QATTP's of disease,"10 mg, data in TABLE 2 (so in the source), all health-related QoL domains except dyspnea, global score, emotional well-being, social well-being, p<0.05",significantly longer
same,"mean health-related QATTP of disease, trend","10 mg, dyspnea, global score, emotional well-being, social well-being domains, p<0.10",trend favored
same,QATTP of Disease Mean,[1],186 days
same,QATTP of Disease Median,[1],151 days
same,QATTP of Disease Mean,[2],196 days
same,QATTP of Disease Median,[2],162 days
same,QATTP of Disease Mean,[3],175 days
same,QATTP of Disease Median,[3],146 days
same,QATTP of Disease Mean,[4],179 days
same,QATTP of Disease Median,[4],146 days
same,QATTP of Disease Mean,[5],180 days
same,QATTP of Disease Median,[5],151 days
same,QATTP of Disease Mean,[6],190 days
same,QATTP of Disease Median,[6],156 days
same,QATTP of Disease Mean,[7],163 days
same,QATTP of Disease Median,[7],138 days
same,QATTP of Disease Mean,[8],159 days
same,QATTP of Disease Median,[8],144 days
same,QATTP of Disease Mean,[9],180 days
same,QATTP of Disease Median,[9],142 days
same,QATTP of Disease Mean,[10],190 days
same,QATTP of Disease Median,[10],151 days
same,QATTP of Disease Mean,[11],189 days
same,QATTP of Disease Median,[11],132 days
same,QATTP of Disease Mean,[12],198 days
same,QATTP of Disease Median,[12],141 days
same,QATTP of Disease Mean,[13],198 days
same,QATTP of Disease Median,[13],178 days
same,QATTP of Disease Mean,[14],209 days
same,QATTP of Disease Median,[14],184 days
same,QATTP of Disease Mean,[15],185 days
same,QATTP of Disease Median,[15],176 days
same,QATTP of Disease Mean,[16],188 days
same,QATTP of Disease Median,[16],184 days
same,QATTP of Disease Mean,[17],173 days
same,QATTP of Disease Median,[17],141 days
same,QATTP of Disease Mean,[18],180 days
same,QATTP of Disease Median,[18],142 days
same,QATTP of Disease Mean,[19],177 days
same,QATTP of Disease Median,[19],123 days
same,QATTP of Disease Mean,[20],182 days
same,QATTP of Disease Median,[20],132 days
same,QATTP of Disease Mean,[21],177 days
same,QATTP of Disease Median,[21],133 days
same,QATTP of Disease Mean,[22],186 days
same,QATTP of Disease Median,[22],143 days
same,QATTP of Disease Mean,[23],167 days
same,QATTP of Disease Median,[23],125 days
same,QATTP of Disease Mean,[24],169 days
same,QATTP of Disease Median,[24],134 days
same,QATTP of Disease Mean,[25],165 days
same,QATTP of Disease Median,[25],109 days
same,QATTP of Disease Mean,[26],174 days
same,QATTP of Disease Median,[26],127 days
same,QATTP of Disease Mean,[27],153 days
same,QATTP of Disease Median,[27],104 days
same,QATTP of Disease Mean,[28],158 days
same,QATTP of Disease Median,[28],111 days
same,QATTP of Disease Mean,[29],159 days
same,QATTP of Disease Median,[29],104 days
same,QATTP of Disease Mean,[30],167 days
same,QATTP of Disease Median,[30],124 days
same,QATTP of Disease Mean,[31],141 days
same,QATTP of Disease Median,[31],103 days
same,QATTP of Disease Mean,[32],145 days
same,QATTP of Disease Median,[32],106 days
same,QATTP of Disease Mean,[33],195 days
same,QATTP of Disease Median,[33],162 days
same,QATTP of Disease Mean,[34],206 days
same,QATTP of Disease Median,[34],178 days
same,QATTP of Disease Mean,[35],201 days
same,QATTP of Disease Median,[35],156 days
same,QATTP of Disease Mean,[36],207 days
same,QATTP of Disease Median,[36],168 days
same,QATTP of Disease Mean,[37],179 days
same,QATTP of Disease Median,[37],133 days
same,QATTP of Disease Mean,[38],188 days
same,QATTP of Disease Median,[38],142 days
same,QATTP of Disease Mean,[39],172 days
same,QATTP of Disease Median,[39],127 days
same,QATTP of Disease Mean,[40],178 days
same,QATTP of Disease Median,[40],137 days
same,QATTP of Disease Mean,[41],172 days
same,QATTP of Disease Median,[41],118 days
same,QATTP of Disease Mean,"EORTC Physical Functioning, 2.5 mg, per protocol",181 days
